Data: US20240360194A1, “New Peptides as Potent and Selective GIP Receptor Agonists” (Sanofi, priority 2021, published 2024)
Values after ≈ are worked out from the molar mass of the structure shown. Where two headings read alike, the source gives them in different places.

What was measured:
[1] = molecular target: T1, human GLP-1 receptor (hGLP-1R) (Homo sapiens, UniProt P43220); test: Binding assay, displacement of [125I]GLP-1 from HEK-293 membranes over-expressing GLP-1R (SPA); conditions: [125I]GLP-1 displacement
T1 sequence (P43220 24-463): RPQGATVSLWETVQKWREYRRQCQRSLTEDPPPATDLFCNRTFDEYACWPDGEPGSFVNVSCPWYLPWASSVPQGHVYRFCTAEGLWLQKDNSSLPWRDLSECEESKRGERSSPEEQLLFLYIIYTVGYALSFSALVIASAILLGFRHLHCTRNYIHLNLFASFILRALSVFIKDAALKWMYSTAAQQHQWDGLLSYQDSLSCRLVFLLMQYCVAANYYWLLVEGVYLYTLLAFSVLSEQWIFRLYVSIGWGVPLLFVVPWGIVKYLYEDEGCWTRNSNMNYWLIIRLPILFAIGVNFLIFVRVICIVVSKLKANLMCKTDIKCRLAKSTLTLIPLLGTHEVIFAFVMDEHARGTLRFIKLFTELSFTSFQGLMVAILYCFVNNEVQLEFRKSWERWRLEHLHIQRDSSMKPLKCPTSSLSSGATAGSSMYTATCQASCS
Method: (1) Preparation of Membranes from HEK-293 Cells Over-Expressing GIPR or GLP-1R
HEK-293 cells recombinantly over-expressing GIPR or GLP-1R were grown to 50% confluency, washed with warm 1×PBS (Gibco) and detached in HEPES/EDTA-buffer (100 mM HEPES pH 7.5, 5 mM EDTA). Cells were harvested by centrifugation at 4° C. and 3000×g and the pellets were stored at −80° C. until further processing.
After thawing on ice, pellets were resuspended in HEPES/EDTA-buffer and homogenized on ice for 1 min using Ultra-Turray T25. After subsequent sonification the cell debris was removed by centrifugation at 1000×g and 4° C. Supernatants were then ultra-centrifuged at 100000×g and 4° C. under vacuum for 30 min. Pellets were resuspended in HEPES/EDTA/NaCl-buffer (20 mM HEPES, 1 mM EDTA, 150 mM NaCl; add 1 Complete Mini Protease inhibitor cocktail to 10 ml buffer) and protein content was determined via BCA-Protein assay.
(2) Measurement of Binding Activity of Test Compounds to Human GIPR or GLP-1R

[2] = molecular target: T2, human GIP receptor (hGIPR) (Homo sapiens, UniProt P48546); test: In vitro cellular cAMP assay for GIP receptor efficacy (HEK-293 cell line over-expressing receptor); type: cell-based; conditions: EC50 hGIPR 0.1% BSA, HEK-293, 0.1% BSA
T2 sequence (P48546 22-466): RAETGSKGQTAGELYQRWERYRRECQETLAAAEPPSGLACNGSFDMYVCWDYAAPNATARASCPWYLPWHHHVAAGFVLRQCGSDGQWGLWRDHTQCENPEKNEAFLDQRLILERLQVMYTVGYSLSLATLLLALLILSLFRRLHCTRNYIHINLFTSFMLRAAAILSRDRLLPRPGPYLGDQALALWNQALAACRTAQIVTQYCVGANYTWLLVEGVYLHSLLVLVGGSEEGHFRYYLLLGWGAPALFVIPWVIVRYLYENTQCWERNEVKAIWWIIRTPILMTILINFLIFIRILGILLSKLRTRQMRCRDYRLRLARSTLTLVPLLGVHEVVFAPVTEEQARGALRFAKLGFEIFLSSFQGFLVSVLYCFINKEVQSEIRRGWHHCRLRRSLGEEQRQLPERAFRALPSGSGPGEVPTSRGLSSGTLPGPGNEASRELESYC

human GIP receptor = molecular target: T3, human GIP receptor (Homo sapiens, UniProt P48546); test: In vitro cellular cAMP assay for GIP receptor efficacy (human adipocytes); type: cell-based; conditions: for EC50: read-out: hGIPR EC50; for Emax: read-out: hGIPR Emax
T3 construct: human adipocytes endogenously expressing the human GIP receptor; host or cells: human preadipocytes (Lonza) differentiated to adipocytes
T3 sequence (P48546 22-466): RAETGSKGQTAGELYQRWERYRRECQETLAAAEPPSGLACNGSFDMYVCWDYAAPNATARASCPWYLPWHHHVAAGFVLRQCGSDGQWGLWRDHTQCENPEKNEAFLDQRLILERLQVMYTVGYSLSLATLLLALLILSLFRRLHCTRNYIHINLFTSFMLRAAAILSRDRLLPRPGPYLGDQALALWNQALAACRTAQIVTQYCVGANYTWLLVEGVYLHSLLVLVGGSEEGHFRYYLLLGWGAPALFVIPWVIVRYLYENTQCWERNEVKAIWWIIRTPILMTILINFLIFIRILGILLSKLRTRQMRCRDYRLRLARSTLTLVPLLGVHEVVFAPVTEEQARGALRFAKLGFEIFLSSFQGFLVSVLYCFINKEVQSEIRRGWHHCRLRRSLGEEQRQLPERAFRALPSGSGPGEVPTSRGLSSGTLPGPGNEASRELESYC
Summary of the method: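 Human preadipocytes expanded, then differentiated 6 days (insulin, dexamethasone, PPARγ agonist, 200 μM IBMX, L-thyroxine) before plating at 5000 cells/well. Test compound applied 30 min at room temperature; cAMP measured by HTRF after 1 h with lysis-buffer reagents, read as 665/620 nm fluorescence ratio.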

[3] = molecular target: T1, human GLP-1 receptor (hGLP-1R); test: In vitro cellular cAMP assay for GLP-1 receptor efficacy (HEK-293 cell line over-expressing receptor); type: cell-based; conditions: HEK-293, 0.1% BSA
[4] = Solubility assessment (UHPLC-UV of supernatant, target 10 mg/ml); type: physicochemical; conditions: read-out: Soluble amount
Summary of the method: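 Peptides at 10 mg/ml (purity-corrected) in 100 mM phosphate pH 7.4, optionally with 2.7 mg/ml m-cresol; gentle agitation 1 h, then 5° C. overnight (24 h). Supernatant after 15 min centrifugation at 2500 RCF quantified by UHPLC-UV, with sequence-based extinction coefficients.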

[5] = molecular target: T2, human GIP receptor (hGIPR); test: Binding assay, displacement of [125I]GIP from HEK-293 membranes over-expressing GIPR (SPA); conditions: [125I]GIP displacement
Summary of the method: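 Membranes from HEK-293 cells over-expressing human GIPR or GLP-1R, isolated by homogenising, sonicating and ultracentrifuging at 100000×g into HEPES/EDTA/NaCl buffer with protease inhibitors, were used for binding.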

[6] = 100 mM phosphate buffer pH 7.4 (solubility buffer system A), pH 7.4, Solubility buffer system A: 100 mM phosphate buffer pH 7.4

Row | IC50 [1] | EC50 [2] | EC50 (human GIP receptor) | Emax (human GIP receptor) | EC50 [3] | solubility at 24 h [4, 6] | IC50 [5] | solubility at 24 h ([4]; pH 7.4, Solubility buffer system C: 100 mM phosphate buffer pH 7.4, 2.7 mg/ml m-cresol) | SMILES
1 | 236 nM | 0.0518 nM | 2.1 nM | 114% | > 10 nM | 5200 µg/mL (≈ 1180 µM) | 0.7 nM | – | CC[C@H](C)[C@H](NC(=O)[C@H](Cc1ccccc1)NC(=O)[C@H](CCC(=O)O)NC(=O)[C@H](CCC(=O)O)NC(=O)[C@H](CCC(N)=O)NC(=O)[C@H](Cc1c[nH]cn1)NC(=O)[C@@H](NC(=O)[C@H](CCCNC(=N)N)NC(=O)[C@H](CC(=O)O)NC(=O)[C@H](CCCCNC(=O)COCCOCCNC(=O)COCCOCCNC(=O)CC[C@H](NC(=O)CCCCCCCCCCCCCCCCCCC(=O)O)C(=O)O)NC(=O)C(C)(C)NC(=O)[C@@H](NC(=O)[C@H](CO)NC(=O)[C@H](CC(C)C)NC(=O)[C@H](CC(=O)O)NC(=O)[C@H](CO)NC(=O)[C@@H](NC(=O)[C@H](Cc1ccccc1)NC(=O)[C@@H](NC(=O)CNC(=O)[C@H](CCC(=O)O)NC(=O)C(C)(C)NC(=O)[C@@H](N)Cc1ccc(O)cc1)[C@@H](C)O)[C@@H](C)CC)[C@@H](C)CC)[C@@H](C)CC)C(=O)N[C@@H](CCC(=O)O)C(=O)N[C@@H](Cc1c[nH]c2ccccc12)C(=O)N[C@@H](CC(C)C)C(=O)N[C@@H](CC(C)C)C(=O)N[C@@H](C)C(=O)N[C@@H](CCC(N)=O)C(=O)N[C@@H](CCCNC(=N)N)C(=O)NCC(N)=O [SEQ ID NO: 5, H2N-Y-Aib-E-G-T-F-I-S-D-L-S-I-Aib-K[{AEEA}2-gGlu-C20OH]-D-R-I-H-Q-E-E-F-I-E-W-L-L-A-Q-R-G-NH2]
2 | 106 nM | 0.00964 nM | 0.4 nM | 121% | > 10 nM | 9100 µg/mL (≈ 2160 µM) | 0.1 nM | 4000 µg/mL (≈ 949 µM) | CC[C@H](C)[C@H](NC(=O)[C@H](CCCNC(=N)N)NC(=O)[C@H](CC(=O)O)NC(=O)[C@H](CCCCNC(=O)CNC(=O)CNC(=O)CNC(=O)CC[C@H](NC(=O)CCCCCCCCCCCCCCCCC(=O)O)C(=O)O)NC(=O)C(C)(C)NC(=O)[C@@H](NC(=O)[C@H](CO)NC(=O)[C@H](CC(C)C)NC(=O)[C@H](CC(=O)O)NC(=O)[C@H](CO)NC(=O)[C@@H](NC(=O)[C@H](Cc1ccccc1)NC(=O)[C@@H](NC(=O)CNC(=O)[C@H](CCC(=O)O)NC(=O)C(C)(C)NC(=O)[C@@H](N)Cc1ccc(O)cc1)[C@@H](C)O)[C@@H](C)CC)[C@@H](C)CC)C(=O)N[C@@H](Cc1c[nH]cn1)C(=O)N[C@@H](CCC(N)=O)C(=O)NC(C)(C)C(=O)N[C@@H](CCC(=O)O)C(=O)N[C@@H](Cc1ccccc1)C(=O)N[C@H](C(=O)N[C@@H](CCC(=O)O)C(=O)N[C@@H](Cc1c[nH]c2ccccc12)C(=O)N[C@@H](CC(C)C)C(=O)N[C@@H](CC(C)C)C(=O)N[C@@H](C)C(=O)N[C@@H](CCC(N)=O)C(=O)N[C@@H](CCCNC(=N)N)C(=O)NCC(N)=O)[C@@H](C)CC [SEQ ID NO: 7, H2N-Y-Aib-E-G-T-F-I-S-D-L-S-I-Aib-K[{Gly}3-gGlu-C18OH]-D-R-I-H-Q-Aib-E-F-I-E-W-L-L-A-Q-R-G-NH2]
